Here are results for 10 molecules from patent US7816374B2, “Method of treating neutrophil-related diseases with topical anesthetics” (Mayo Foundation for Medical Education and Research, priority 2000, dated 2010).

“And” between values parts separate entries of the source, which are not always exact repeats. Equal values may be shown once. “Also recorded” adds a separate entry of the source.

Data set [1] is described as follows: Clinical trial of nebulized lidocaine in severe asthma. The format is in vivo, human. The conditions noted are these: twenty patients with severe asthma; 100 mg nebulized lidocaine x4 qd.
Data set [2] in a line: Serum concentration after lidocaine nebulization (PARI II device). The format is in vivo, human. Particulars: nebulization of up to 375 mg over 10 minutes; four normal subjects and four asthma patients; >1 μg/ml in only one patient out of eight. An excerpt:
Scott, D. B. et al., Br J Anaesth. 48:899-902 (1976); Chinn, W. M. et al., Chest 71:346-348 (1977).

Data set [3] is described as follows: Patient with inflammatory bowel disease-associated severe bronchitis treated with nebulized lidocaine. The format is in vivo, human. Particulars: nebulized lidocaine 100 mg four times daily; within six weeks; one patient. Here is the method: A patient with inflammatory bowel disease-associated severe bronchitis who had symptoms of copious sputum production (in excess of 150 mi/day), daily cough and chest tightness, and shortness of breath on exertion, who had not responded to topical or systemic glucocorticoids and multiple rounds of antibiotics over an 18 month period was treated. Lamos, J. et al., Arch Internationales De Pharmacodynamie et de Therapie 331:179-188 (1996).

The next data set concerns eosinophils. The conditions noted are these: in vitro; Okada et al. 1998; cited from earlier work.
In data set [4] the test system is neutrophils. The data set can be described thus: Neutrophil extracellular superoxide production (cytochrome c reduction plate assay). The format is cell-based, human. The conditions noted are these: for stimulation of neutrophils to release extracellular superoxide: stimulus screen, G-CSF 5 ug/mL, IFN-γ 100 ng/mL, 1 ug/mL, IL-8 0.5, 1 and 10 ng/mL, LTB4 100 nM and 1 uM. How it is done: Neutrophils were purified from heparinized venous blood of normal volunteers by sedimentation through a cushion of 1.085 gm/ml Percoll made in PIPES buffer, pH 7.4, supplemented with 50 mM NaCl, 5 mM KCl, 25 mM NaOH, and 5.4 mM glucose) and centrifuged at 2,000 rmp in a Beckman CS-6KR centrifuge for 30 minutes with no brake. Plasma, mononuclear cells, and Percoll layers were removed and the erythrocytes were lysed by osmotic shock.
The superoxide production was measured using cytochrome c reduction in a plate assay at a concentration of 50,000 neutrophils/well and was done in duplicate.
(§1) Neutrophils were isolated in a Percoll gradient to remove PBMC.
The extracellular superoxide assay (Cytochrome C method) was performed as follows: 1) The wells of a 96-well plate were blocked with 50 ul of 1% HSA for at least 2 hours at 37° C. 2) The Cytochrome C mix (#C-2506, Sigma, St. Louis, Mo.) was prepared as follows: 2.4 mgs of Cytochrome C was resuspended in 1 mL HBSS/HEPES (pH 7.4). One mL of CytoC mix was required for every 0.5×10^6 cells used in the assay. 3) The blocked cells of the 96 well plate were washed twice with 200 μL saline. 4) 4× stimulus and inhibitor stocks were prepared HBSS/HEPES. The cells were resuspended in CytoC mix to 0.5×10^6 cells/mL and kept on ice until ready for use. 5) The final volume in all wells was 200 μL: 100 μl cell/CytoC mix suspension per well (0.05×10^6 cells/well); 50 μL stimulus (if present) per well and 50 μL inhibitor (if present) per well. If stimulus and/or inhibitor was not required for a well, the volume was made up with HBSS/HEPES so that the total volume in the well was 200 μL. 6) Stimuli, inhibitors and cells were added to the wells in the following order: 1) media filler; 2) inhibitors; 3) cells; and 4) stimuli. 7) The 96 well plate was placed in a ThermoMax plate reader and the OD550 was read at 37° C. The plate was read at time 0 and then every 10 minutes for 1 hour, then every 30 minutes for 3 hours. 8) The concentration of superoxide released was calculated by using the following formula to calculate the nmol of Cytochrome C reduced: 19.1*[OD550(time x)−OD550(time 0)]/0.05=nmol Cytochrome C reduced per 1×10^6 cells=nmol superoxide released per 1×10^6 cells.

A short description of data set [5]: Case report of patient with bronchitis treated with lidocaine inhalation. The data set is classed as in vivo, human. How it is done: The patient was a person first seen in 1996 with a six month history of harsh cough affecting their both during the night and the day. Copious (about 50 ml per day), thick, yellow to white sputum was produced. They were often awakened at night with chest heaviness and dyspnea. […] When initially evaluated, the patient was receiving prednisone, 30 mg every other day, Salmeterol twice daily and Asthmacort four inhalations four times a day.

The subject of data set [6] is neutrophils. The data set can be described thus: Lactoferrin release from stimulated neutrophils (ELISA). The format is cell-based, human. The conditions noted are these: FIG. 7. Here is the method: as §1
To measure lactoferrin, an ELSIA kit was purchased from Calbiochem (San Diego, Calif.) and the protocols and procedures were followed therein.
When neutrophils begin to invade injured tissue, feedback control of inflammation begins with degranulation of neutrophils and massive release of lactoferrin. The amount of lactoferrin released from neutrophils stimulated with PMA, TNF-α and PAF was measured.
Background: ELISA stands for enzyme-linked immunosorbent assay.

For data set [7] the following is noted: cited from earlier work.
The test system of the next data set is sputum neutrophilia. The data set can be described thus: Sputum cell counts before and after four weeks of nebulized lidocaine in patients with chronic protracted post-viral or post-irritant cough. The arrangement: wbc before / wbc after / eos before / eos after: unit not given here. The data set is classed as in vivo, human. How it is done: Yamamoto, C. et al., Chest 112:505-510 (1997); Peleman, R. A. et al., Eur. Resp. Journal 13:839-843 (1999); Gibson, P. G. et al., Thorax 44:693-699 (1989). Induction, collection, and processing of sputum is performed according to the method of Pin and Hargreave. Briefly, if the patient is unable to spontaneously produce a 5 cc sputum sample, sputum induction is performed using ultrasonically nebulized hypertonic saline administered in progressive 2 minute increments followed by attempts to cough and produce sputum. The nebulization continues until a total of 12 minutes have elapsed or the patient produces 5 cc of sputum. The initial specimen is collected in a 50 ml conical tube, vortexed and 1 cc of the sputum is aspirated and placed on ice for cytokine analysis. The remaining volume is weighed, and mixed with equal volumes of dithiothreitol, vortexed, then rocked for 15 min at 37° C. with frequent vortexing. The specimen is analyzed for total and differential cell counting.

The subject of data set [8] is neutrophils. Particulars: in vitro, cited from earlier work.
Setting [9] is: six patients, after four weeks of nebulized lidocaine.

In the case of `CCN(CC)CC(=O)Nc1c(C)cccc1C` [lidocaine, (2-diethylamino)-N-(2,6-dimethylphenyl)acetamide], in [1], the “patients able to discontinue or reduce the use of oral GC by 80%” value is listed as “seventeen” and the side effects entry is reported as “minimal side effects”. Also, the serum concentration in [2] is 1.5 µg/mL. In data set [3], the “cough and chest tightness” value was “disappeared”; the sputum volume result was “diminished to zero”. The “cytokine-stimulated eosinophilopoesis and prolongation of survival, activation, respiratory burst, and degranulation of eosinophils” value with eosinophils was “inhibit”. In addition, the “TNF-α stimulated neutrophil superoxide anion production” value in the data set on neutrophils [4] (3 mM lidocaine, TNF-alpha stimulus, 50,000 neutrophils/well) is given as “virtually totally suppresses; also recorded: almost totally inhibited”. Also, the “C5a stimulated neutrophil superoxide anion production” value in the data set on neutrophils [4] (C5a stimulus, FIGS. 6A and 6B) is given as “suppresses”. Moreover, the “stimulation of neutrophils (extracellular superoxide) by stimuli” value with neutrophils [4] (all stimuli with the exception of PMA) is recorded as “inhibits the stimulation of neutrophils in a dose dependent manner”. Besides, in the data set on neutrophils [4] (lidocaine, PMA stimulus), the “PMA induced neutrophil superoxide anion production” value is recorded as “does not alter this production; also recorded: not inhibited”. Besides, the “superoxide anion production by unstimulated neutrophils” value in the data set with neutrophils [4] (presence and absence of 3 mM lidocaine, no stimulus) is reported as “no superoxide anion is produced”. Also, the “patient-reported course on continued therapy” value in [5] (lidocaine by inhalation for the following year, occasional antibiotics) is reported as “continued improvement”. Moreover, in [5] (lidocaine by inhalation, over a span of three weeks, one patient), the “sputum volume and cough” value is “diminished strikingly”. In the data set with neutrophils [6] (PMA stimulus), the “lactoferrin release in PMA stimulated neutrophils” value was “may have an effect”. The “lactoferrin release in neutrophils stimulated with TNF” value in the data set with neutrophils [6] (TNF stimulus) is reported as “significantly inhibits”. Further, in data set [7] (lidocaine inhalation, most adult and pediatric patients), the “systemic glucocorticoid use in steroid-dependent asthma” value is “reduces or eliminates systemic glucocorticoids”. In [7] (nebulized lidocaine), the “topical glucocorticoid use in mild to moderate asthma” value is reported as “able to replace topical glucocorticoids”. In [7] (nebulized lidocaine, mild to moderate asthma), the “peripheral blood eosinophils when topical glucocorticoids were withdrawn” value was “prevented the rise”. Also, in the data set with sputum neutrophilia (setting [9]), the cough entry was “clearing of their cough” and the sputum neutrophils result is on record as “reduction of sputum neutrophils”. Besides, the pmn after in the data set on sputum neutrophilia (sputum PMN of individual patients after four weeks of nebulized lidocaine) was 568,400 and 352,000 and 617,760 and 79,900 and 1,612,800 and 551,200. Further, in the data set with sputum neutrophilia (sputum PMN of individual patients before lidocaine treatment (baseline)), the pmn before is 1,032,200 and 3,569,000 and 1,566,000 and 2,772,000 and 4,093,400 and 1,256,250. Besides, the wbc after in the data set with sputum neutrophilia (sputum WBC of individual patients after four weeks of nebulized lidocaine) was 1,160,000 and 1,600,000 and 2,808,000 and 85,000 and 4,480,300 and 2,120,000. Moreover, in the data set on sputum neutrophilia (sputum WBC of individual patients before lidocaine treatment (baseline)), the wbc before is 3,330,000 and 6,050,000 and 2,700,000 and 4,760,000 and 2,512,500. The eos after with sputum neutrophilia (sputum eosinophils of individual patients after four weeks of nebulized lidocaine) is 0 (2×) and 96,000 and 2,808 and 134,400 and 42,500. Moreover, the eos before in the data set with sputum neutrophilia (sputum eosinophils of individual patients before lidocaine treatment (baseline)) was 0 (3×) and 484,000 and 12,798 and 1,384,200. Also, in the data set with neutrophils [8], the “activation of neutrophils by G-CSF, TNF-α and GM-CSF” value is on record as “inhibits activation”; the “neutrophil aggregation and degranulation” value is reported as “Inhibition”. The “depolarization of neutrophil membrane potential, superoxide generation and chemiluminescence response in neutrophils” value in the data set on neutrophils [8] (concentration-dependent manner) is recorded as “inhibits”.

Consider IFN-γ: interferon gamma, for which the “stimulation of neutrophils to release extracellular superoxide” value in the data set on neutrophils [4] is recorded as “did not stimulate”.

As for `CCCCC/C=C\C[C@@H](O)/C=C/C=C/C=C\[C@@H](O)CCCC(=O)O` [LTB4, leukotriene B4], in the data set with neutrophils [4], the “stimulation of neutrophils to release extracellular superoxide” value is “did not stimulate”.

In the case of “GM-CSF: granulocyte macrophage colony stimulating factor”, the “stimulation of neutrophils to release extracellular superoxide” value with neutrophils [4] is listed as “stimulated”.

IL-8: interleukin 8: in the data set with neutrophils [4], the “stimulation of neutrophils to release extracellular superoxide” value is “did not stimulate”.

Regarding f-met-leu-phe [fMLP], the “stimulation of neutrophils to release extracellular superoxide” value with neutrophils [4] is reported as “stimulated”.

As for TNF-α, the “stimulation of neutrophils to release extracellular superoxide” value in the data set on neutrophils [4] is listed as “stimulated; also recorded: considerable superoxide anion is released”.

As to `CCCCCCCCCCCCCC(=O)O[C@@H]1[C@@H](C)[C@@]2(O)[C@@H](C=C(CO)C[C@]3(O)C(=O)C(C)=C[C@@H]23)[C@@H]2C(C)(C)[C@]12OC(C)=O` [PMA, phorbol-myristate acetate], the “stimulation of neutrophils to release extracellular superoxide” value in the data set on neutrophils [4] is recorded as “stimulated; also recorded: stimulates superoxide anion very considerably”.

B1: C5a: component of the complement system (protein, UniProt P01031 678-751, looked up)
C5a anaphylatoxin: TLQKKIEEIAAKYKHSVVKKCCYDGACVNNDETCEQRAARISLGPRCIKAFTECCVVASQLRANISHKDMQLGR
modifications: C5a anaphylatoxin
notes: component of the complement system
For B1, in the data set with neutrophils [4], the “stimulation of neutrophils to release extracellular superoxide” value is recorded as “stimulated; also recorded: stimulates superoxide anion production”.

B2: G-CSF: granulocyte colony stimulating factor (protein, UniProt P09919 31-207, looked up)
Granulocyte …: TPLGPASSLPQSFLLKCLEQVRKIQGDGAALQEKLVSECATYKLCHPEELVLLGHSLGIPWAPLSSCPSQALQLAGCLSQLHSGLFLYQGLLQALEGISPELGPTLDTLQLDVADFATTIWQQMEELGMAPALQPTQGAMPAFASAFQRRAGGVLVASHLQSFLEVSYRVLRHLAQP
As to B2, in the data set on neutrophils [4], the “stimulation of neutrophils to release extracellular superoxide” value is given as “did not stimulate”.
